Columns and labels:
ACHN = assay: MTT cell viability assay; type: cell-based, human; conditions: Homo sapiens; ACHN renal cancer, MTT, 48 h, mean ± SD of three experiments; read-out: IC50 (concentration required for 50% inhibition of cell viability)
Method: (§1) Cell Line cells were obtained from American Type Culture Collection, cells were cultured using Dulbecco's Modified Eagle's medium (DMEM) (Invitrogen/Life Technologies) supplemented with 10% foetal bovine serum (FBS) (Hyclone), 10 μg/mL of insulin (Sigma), and 1% penicillin-streptomycin. All of the other chemicals and reagents were from Sigma, or Invitrogen. Plate cells (cells density 1.2 – 1.8 × 10,000 cells/well) in a volume of 100 µL complete growth medium and 100 μL of the tested compound per well in a 96-well plate for 24 h before the MTT assay.
(§2) Remove culture medium to a centrifuge tube. […] Add 2.0 to 3.0 ml of Trypsin EDTA solution to flask and observe cells under an inverted microscope until cell layer is dispersed. Add 6 to 8 ml of complete growth medium and aspirate cells by gently pipetting. Transfer the cell suspension to the centrifuge tube with the medium and centrifuge for 5 to 10 min. Discard the supernatant. Resuspend the cell pellet in fresh growth medium. Add appropriate aliquots of the cell suspension to new culture vessels. Incubate cultures at 37 °C for 24 h. After treatment of cells with the serial concentrations of the compound to be tested incubation is carried out for 48 h at 37 °C, then the plates are to be examined under the inverted microscope and proceed for the MTT assay.
(§3) The 3–(4, 5-dimethylthiazol-2-yl)-2,5-diphenyltetrazolium bromide (MTT) method[30] of monitoring in vitro cytotoxicity is well suited for use with multiwell plates. The assessment of cell population growth is based on the capability of living cells to reduce the yellow product MTT to a blue product, formazan, by a reduction reaction occurring in the mitochondria. The five cell lines were incubated for 24 h in 96-microwell plates. The number of living cells in the presence or absence (control) of the various test compounds is directly proportional to the intensity of the blue colour, measured by spectrophotometry using (ROBONIK P2000 Spectrophotometer) at a wavelength of 570 nm. Measure the background absorbance of multiwell plates at 690 nm and subtract from the 570 nm measurement. Five concentrations ranging from 0.01 μM to 100 μM (with semi-log decrease in concentration) were tested for each of the compounds under study. Each experiment was carried out in triplicate. The IC50 values [the concentration required for 50% inhibition of cell viability] were calculated using sigmoidal dose response curve-fitting models.

NCI-H460 = assay: MTT cell viability assay; type: cell-based, human; conditions: Homo sapiens; NCI-H460 lung cancer, MTT, 48 h, mean ± SD of three experiments; read-out: IC50 (concentration required for 50% inhibition of cell viability)
Method: as §1, §2, §3

OVCAR-4 = assay: MTT cell viability assay; type: cell-based, human; conditions: Homo sapiens; OVCAR-4 ovarian cancer, MTT, 48 h, mean ± SD of three experiments; read-out: IC50 (concentration required for 50% inhibition of cell viability)
Method: as §1, §2, §3

Row | SMILES | melting point | IC50 (ACHN) | IC50 (NCI-H460) | IC50 (OVCAR-4)
1 | Cc1nn(-c2ccc(F)cc2)c2ncnc(NN=Cc3ccncc3)c12 [Compound 10d, 1–(4-Fluorophenyl)-3-methyl-4–(2-(pyridin-4-yl-methylidene) hydrazinyl)-1H-pyrazolo[3,4-d]pyrimidine] | 262 to 264 °C |  |  | 
2 | C#Cc1cccc(Nc2ncnc3cc(OCCOC)c(OCCOC)cc23)c1 [Erlotinib, reference compound] |  | 12.4 ± 1.88 µM | 8.36 ± 0.69 µM | 2.79 ± 0.41 µM

— article PMC6352943, “Novel pyrazolo[3,4-d]pyrimidines: design, synthesis, anticancer activity, dual EGFR/ErbB2 receptor tyrosine kinases inhibitory activity, effects on cell cycle profile and caspase-3-mediated apoptosis” (Journal of Enzyme Inhibition and Medicinal Chemistry, 2019)
